Measurements taken from US9243039B2, “Bipartite inhibitors of bacterial RNA polymerase: Sal-target-inhibitor/nucleoside-analog-inhibitor conjugates” (priority 2012, dated 2016).
pIC50: −log10 of the molar value. Values after ≈ are worked out from the molar mass of the structure shown. *1 amine or outer side, *2 acyl side, *3 side chain or, on linkers, in order; H or OH if unused. Where a SMILES comes first, the peptide text is derived from it. Bridges are numbered along the chain shown (N, C = ends). [ ]: non-standard residue; d: D form. The star is where a group is joined. X4 = C[C@@H](Oc1ccc([C@H](N[*:1])C(=O)[*:2])cc1)[C@](O)(/C=C/C(=O)[*:3])CNCCCCCCNC(=O)OC(C)(C)C; X5 = C[C@@H](Oc1ccc([C@H](N[*:1])C(=O)[*:2])cc1)[C@](O)(/C=C/C(=O)[*:3])CNCCCNC(=O)OC(C)(C)C; X2 = CCCCOC[C@@](O)(/C=C/C(=O)[*:3])[C@@H](C)Oc1ccc([C@H](N[*:1])C(=O)[*:2])cc1; X1 = C[C@@H](Oc1ccc([C@H](N[*:1])C(=O)[*:2])cc1)[C@](O)(/C=C/C(=O)[*:3])CBr; Pentanoyl(2R-Me,3R-OH,4-Me) = CC(C)[C@@H](O)[C@@H](C)C(=O)*; d(aIle) = CC[C@H](C)[C@@H](N)C(=O)O; d(aThr) = C[C@@H](O)[C@@H](N)C(=O)O; NMeF = CN[C@@H](Cc1ccccc1)C(=O)O

Key:
Sal-resistant mutants = settings: Ebright et al., WO/2012/129173; cited from earlier work
Escherichia coli RNAP = Escherichia coli RNAP (Escherichia coli, UniProt P0A8T7+P0A8V2); experiment: Fluorescence-detected RNAP assay, Escherichia coli RNAP; format: biochemical; settings: for pIC50: fluorescent-detected RNAP assays
Protocol: Fluorescence-detected RNAP assays with Escherichia coli RNAP were performed by a modification of the procedure of Kuhlman et al., 2004 [Kuhlman et al., Anal. Biochem. 324:183-190, 2004]. Reaction mixtures contained (20 μl): […] test compound, 75 nM Escherichia coli RNAP […] holoenzyme, 20 nM 384 by DNA fragment containing the bacteriophage T4 N25 promoter, 100 μM ATP, 100 μM GTP, 100 μM UTP, 100 μM CTP, 50 mM Tris-HCl, pH 8.0, 100 mM KCl, 10 mM MgCl2, 1 mM DTT, 10 μg/ml bovine serum albumin, and 5.5% glycerol. Reaction components other than DNA and NTPs were pre-incubated for 10 min at 37° C. Reactions were carried out by addition of DNA and incubation for 5 min at 37° C., followed by addition of NTPs and incubation for 60 min at 37° C. DNA was removed by addition of 1 μl 5 mM CaCl2 and 2 U DNaseI (Ambion, Inc.), followed by incubation for 90 min at 37° C. RNA was quantified by addition of 100 μl RiboGreen RNA Quantitation Reagent (Invitrogen, Inc.; 1:500 dilution in Tris-HCl, pH 8.0, 1 mM EDTA), followed by incubation for 10 min at 25° C., followed by measurement of fluorescence intensity [excitation wavelength=485 nm and emission wavelength=535 nm; QuantaMaster QM1 spectrofluorometer (PTI, Inc.)].
(§1) Half-maximal inhibitory concentrations (IC50s) were calculated by non-linear regression in SigmaPlot (SPSS, Inc.).

Vero E6 ATCC CRL1586 = experiment: Cytotoxicity to mammalian cells in culture (CellTiter96); format: cell-based; settings: mammalian cells in culture
From the text: MICs for mammalian cells (Vero E6) in culture were quantified using CellTiter96 assay (Promega. Inc.; procedures as specified by the manufacturer). Screening data for SalA and SalB (compounds 1 and 2) and representative compounds of this invention (compounds 3-9) are presented in Tables 1-2: […]

human RNAP I/II/III = experiment: Radiochemical assay with human RNAP I, II and III (HeLaScribe nuclear extract); format: biochemical
Protocol: Radiochemical assays with human RNAP I, II, and III were performed essentially as described [Sawadogo and Roeder, Cell 43:165-75, 1985]. Reaction mixtures contained (20 μl): 0-100 μM test compound, 8 U HeLaScribe Nuclear Extract (Promega, Inc.), 1 μg human placental DNA (Sigma-Aldrich), 400 μM ATP, 400 μM [α^32P]UTP (0.11 Bq/fmol), 400 μM CTP, 400 μM GTP, 50 mM Tris-HCl, pH 8.0, 7 mM HEPES-NaOH, 70 mM (NH4)2SO4, 50 mM KCl, 12 mM MgCl2, 5 mM DTT, 0.1 mM EDTA, 0.08 mM phenylmethylsulfonyl fluoride, and 16% glycerol. Reaction components other than DNA and NTPs were pre-incubated 10 min at 30° C., DNA was added and reaction mixtures were incubated 15 min at 30° C., NTPs were added and reaction mixtures were incubated 60 min at 30° C. Reaction mixtures were spotted on DE81 filter discs (Whatman, Inc.; pre-wetted with water) and incubated 1 min at room temperature. Filters were washed with 3×3 ml Na2HPO4, 2×3 ml water, and 3 ml ethanol, using a filter manifold (Hoefer, Inc.). Filters were placed in scintillation vials containing 10 ml Scintiverse BD Cocktail (Thermo Fisher, Inc.), and radioactivity was quantified by scintillation counting (LS6500; Beckman-Coulter, Inc.).
as §1

[1] = test system: Enterobacter cloacae ATCC 13047; experiment: Antibacterial activity, broth microdilution, Enterobacter cloacae; format: cell-based; settings: Enterobacter cloacae, ATCC13047; minimal concentration resulting in ≧50% inhibition of bacterial growth
From the text: (§2) Antibacterial activity was quantified using broth microdilution [Clinical and Laboratory Standards Institute (CLSUNCCLS), Methods for Dilution Antimicrobial Susceptibility Tests for Bacteria That Grow Aerobically; Approved Standard, Eighth Edition. CLIS Document M07-A8 (CLIS, Wayne Pa.), 2009]. Assays with Enterobacter cloacae ATCC 13047, Pseudomonas aeruginosa ATCC10145, and Escherichia coli D21f2to1C, employed a starting cell density of 2-5×10^5 cfu/ml, Mueller Hinton II cation adjusted broth (BD Biosciences, Inc.), and an air atmosphere. Assays with Haemophilus influenzae ATCC49247 and Neisseria gonorrhoeae ATCC 19424 employed a starting cell density of 2-5×10^5 cfu/ml, Haemophilus Test Medium broth (Barry et al., 1993) and a 5% CO2/95% air atmosphere. MIC50 was defined as the minimal concentration resulting in ≧50% inhibition of bacterial growth.

[2] = test system: Escherichia coli D21f2toIC; experiment: Antibacterial activity, broth microdilution, Escherichia coli D21f2tolC; format: cell-based; settings: for MIC50: Escherichia coli, D21F2TOIC, read-out: MIC50 Escherichia coli D21f2toIC
From the text: as §2

Escherichia coli RNAP, sequence (P0A800 whole entry, the tested form may be a part): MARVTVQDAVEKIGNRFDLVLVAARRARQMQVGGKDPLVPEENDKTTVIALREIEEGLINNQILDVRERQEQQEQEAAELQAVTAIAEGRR
Escherichia coli RNAP, sequence (P00579 whole entry, further chain, the tested form may be a part): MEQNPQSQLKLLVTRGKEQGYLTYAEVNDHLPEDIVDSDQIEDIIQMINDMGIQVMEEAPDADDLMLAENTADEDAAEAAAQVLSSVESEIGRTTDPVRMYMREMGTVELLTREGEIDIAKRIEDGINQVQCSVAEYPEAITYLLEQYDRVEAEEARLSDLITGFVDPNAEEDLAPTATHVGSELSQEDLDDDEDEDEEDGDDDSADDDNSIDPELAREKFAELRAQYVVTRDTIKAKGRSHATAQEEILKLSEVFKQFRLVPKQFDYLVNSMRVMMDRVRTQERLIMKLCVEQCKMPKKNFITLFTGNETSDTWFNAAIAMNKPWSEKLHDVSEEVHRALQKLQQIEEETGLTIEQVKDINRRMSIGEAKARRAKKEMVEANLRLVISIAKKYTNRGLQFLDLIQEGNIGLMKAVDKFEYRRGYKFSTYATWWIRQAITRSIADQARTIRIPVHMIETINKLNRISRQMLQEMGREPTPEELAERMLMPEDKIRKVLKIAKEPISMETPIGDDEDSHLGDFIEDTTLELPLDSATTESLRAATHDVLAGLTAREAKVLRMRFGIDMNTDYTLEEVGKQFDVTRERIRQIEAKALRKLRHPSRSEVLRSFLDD
Escherichia coli RNAP, sequence (P0A8V2 whole entry, the tested form may be a part): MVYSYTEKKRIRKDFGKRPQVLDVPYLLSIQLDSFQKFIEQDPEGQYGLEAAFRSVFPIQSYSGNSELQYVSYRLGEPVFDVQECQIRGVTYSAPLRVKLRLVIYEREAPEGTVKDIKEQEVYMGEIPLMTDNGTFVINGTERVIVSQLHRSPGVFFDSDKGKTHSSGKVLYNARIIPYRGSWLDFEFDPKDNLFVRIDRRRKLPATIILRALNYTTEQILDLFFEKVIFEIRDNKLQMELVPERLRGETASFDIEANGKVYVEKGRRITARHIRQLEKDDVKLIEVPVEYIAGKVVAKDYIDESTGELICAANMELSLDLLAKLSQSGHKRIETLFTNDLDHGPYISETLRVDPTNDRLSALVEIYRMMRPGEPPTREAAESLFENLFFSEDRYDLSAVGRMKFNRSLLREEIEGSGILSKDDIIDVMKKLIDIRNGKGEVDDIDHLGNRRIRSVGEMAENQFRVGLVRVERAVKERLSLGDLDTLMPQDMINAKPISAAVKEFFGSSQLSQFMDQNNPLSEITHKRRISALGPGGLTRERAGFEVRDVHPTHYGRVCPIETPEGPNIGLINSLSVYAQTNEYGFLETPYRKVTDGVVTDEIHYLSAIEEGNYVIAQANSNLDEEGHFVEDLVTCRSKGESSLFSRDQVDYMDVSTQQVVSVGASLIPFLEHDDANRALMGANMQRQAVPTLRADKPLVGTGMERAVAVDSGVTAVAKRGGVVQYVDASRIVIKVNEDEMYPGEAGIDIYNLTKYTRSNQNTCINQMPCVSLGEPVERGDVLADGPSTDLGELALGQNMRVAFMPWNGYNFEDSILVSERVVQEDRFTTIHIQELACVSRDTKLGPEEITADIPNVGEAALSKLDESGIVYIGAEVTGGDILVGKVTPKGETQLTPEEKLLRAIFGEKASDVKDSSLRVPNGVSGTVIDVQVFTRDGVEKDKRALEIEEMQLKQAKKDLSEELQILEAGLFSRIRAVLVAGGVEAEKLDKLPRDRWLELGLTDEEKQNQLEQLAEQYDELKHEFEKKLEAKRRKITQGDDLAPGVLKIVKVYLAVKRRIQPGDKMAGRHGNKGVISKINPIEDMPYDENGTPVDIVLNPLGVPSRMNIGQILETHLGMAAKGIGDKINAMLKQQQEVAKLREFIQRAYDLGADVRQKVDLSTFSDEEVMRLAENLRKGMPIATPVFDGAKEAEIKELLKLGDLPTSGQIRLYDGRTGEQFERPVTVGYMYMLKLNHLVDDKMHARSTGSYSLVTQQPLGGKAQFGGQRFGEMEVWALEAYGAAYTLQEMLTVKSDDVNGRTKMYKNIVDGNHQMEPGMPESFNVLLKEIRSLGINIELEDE
Escherichia coli RNAP, sequence (P0A8T7 whole entry, the tested form may be a part): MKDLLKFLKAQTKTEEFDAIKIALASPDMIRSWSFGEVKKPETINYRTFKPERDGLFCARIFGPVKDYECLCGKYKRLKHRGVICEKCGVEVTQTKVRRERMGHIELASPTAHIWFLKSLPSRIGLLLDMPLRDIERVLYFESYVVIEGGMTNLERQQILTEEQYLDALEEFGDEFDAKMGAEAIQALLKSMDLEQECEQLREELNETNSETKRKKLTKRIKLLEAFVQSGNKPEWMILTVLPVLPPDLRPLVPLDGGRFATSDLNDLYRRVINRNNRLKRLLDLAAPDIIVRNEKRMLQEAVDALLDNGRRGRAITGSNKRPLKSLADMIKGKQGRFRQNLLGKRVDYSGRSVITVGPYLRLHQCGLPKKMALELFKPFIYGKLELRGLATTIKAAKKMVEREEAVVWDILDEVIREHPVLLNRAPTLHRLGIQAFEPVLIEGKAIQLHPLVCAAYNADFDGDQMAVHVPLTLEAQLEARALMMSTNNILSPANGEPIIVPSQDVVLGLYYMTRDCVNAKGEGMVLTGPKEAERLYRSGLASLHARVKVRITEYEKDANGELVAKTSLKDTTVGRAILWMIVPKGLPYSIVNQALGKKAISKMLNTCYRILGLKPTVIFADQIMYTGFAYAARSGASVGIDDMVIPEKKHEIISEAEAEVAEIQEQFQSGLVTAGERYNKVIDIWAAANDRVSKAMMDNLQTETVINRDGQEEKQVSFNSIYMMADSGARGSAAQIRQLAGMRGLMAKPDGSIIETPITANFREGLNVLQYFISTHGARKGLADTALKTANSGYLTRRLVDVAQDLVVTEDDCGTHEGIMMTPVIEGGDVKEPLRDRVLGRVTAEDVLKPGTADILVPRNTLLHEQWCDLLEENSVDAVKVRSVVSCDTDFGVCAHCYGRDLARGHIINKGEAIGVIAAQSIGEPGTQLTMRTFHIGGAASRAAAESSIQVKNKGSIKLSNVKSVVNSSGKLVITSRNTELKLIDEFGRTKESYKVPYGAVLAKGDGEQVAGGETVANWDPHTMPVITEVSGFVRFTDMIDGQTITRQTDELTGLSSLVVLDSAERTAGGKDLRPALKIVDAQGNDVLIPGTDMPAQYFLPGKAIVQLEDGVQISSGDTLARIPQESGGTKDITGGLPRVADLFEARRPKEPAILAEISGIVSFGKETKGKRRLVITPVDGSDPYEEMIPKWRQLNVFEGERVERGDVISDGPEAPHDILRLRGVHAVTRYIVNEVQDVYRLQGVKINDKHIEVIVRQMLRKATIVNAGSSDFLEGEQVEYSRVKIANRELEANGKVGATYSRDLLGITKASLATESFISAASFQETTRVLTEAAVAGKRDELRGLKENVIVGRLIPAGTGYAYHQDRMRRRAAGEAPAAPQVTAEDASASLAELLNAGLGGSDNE
Escherichia coli RNAP, sequence (P0A7Z4 whole entry, further chain, the tested form may be a part): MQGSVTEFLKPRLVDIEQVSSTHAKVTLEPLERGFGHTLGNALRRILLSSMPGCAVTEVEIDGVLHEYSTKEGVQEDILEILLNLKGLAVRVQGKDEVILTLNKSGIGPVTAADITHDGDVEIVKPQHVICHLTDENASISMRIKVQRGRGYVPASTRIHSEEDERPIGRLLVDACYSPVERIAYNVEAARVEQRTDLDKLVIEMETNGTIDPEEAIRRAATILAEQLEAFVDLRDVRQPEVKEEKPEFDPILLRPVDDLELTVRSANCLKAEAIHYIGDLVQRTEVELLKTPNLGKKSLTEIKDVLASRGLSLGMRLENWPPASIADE

In the case of `ONC(=Nc1ccccc1)c1cccc(C(F)(F)F)c1` [CBR703], the “cross-resistance of Sal-resistant mutants to the compound” value (Sal-resistant mutants) is listed as “not cross-resistant”.
In the case of `CC[C@H](C)[C@H]1NC(=O)[C@@H](NC(=O)[C@H](C)[C@H](O)C(C)C)[C@@H](C)OC(=O)[C@@H]2COC(=O)CNC(=O)/C=C/[C@](O)(CBr)[C@@H](C)Oc3ccc(cc3)[C@H](NC1=O)C(=O)N(C)[C@@H](Cc1ccccc1)C(=O)N[C@H]([C@@H](C)O)C(=O)N2` [Sal-Br (3)] ({Pentanoyl(2R-Me,3R-OH,4-Me)}-T[d(aIle)][X1][NMeF][d(aThr)]S; ester 1-C; linker 3-6 via G), the pIC50 (Escherichia coli RNAP) was 5.52, the RNAP-inhibitory activity (Escherichia coli RNAP; in words, refers to Table 1) was “essentially full” and the “MIC50 Vero E6 ATCC CRL1586” value (Vero E6 ATCC CRL1586) was greater than 100 µg/mL. For the same molecule, the pIC50 (human RNAP I/II/III) was less than 4.00, the MIC50 [1] was 1.56 µg/mL (≈ 1.42 µM) and the MIC50 [2] was 0.049 µg/mL (≈ 0.0445 µM). The antibacterial activity ([2]; in words, refers to Table 2) was “essentially full”.
In the case of `CC[C@H](C)[C@H]1NC(=O)[C@@H](NC(=O)[C@H](C)[C@H](O)C(C)C)[C@@H](C)OC(=O)[C@@H]2COC(=O)CNC(=O)/C=C/[C@](O)(CNCCCNC(=O)OC(C)(C)C)[C@@H](C)Oc3ccc(cc3)[C@H](NC1=O)C(=O)N(C)[C@@H](Cc1ccccc1)C(=O)N[C@H]([C@@H](C)O)C(=O)N2` [Sal-NH(CH2)3NHBoc (7)] ({Pentanoyl(2R-Me,3R-OH,4-Me)}-T[d(aIle)][X5][NMeF][d(aThr)]S; ester 1-C; linker 3-6 via G), the pIC50 (Escherichia coli RNAP) was 6.22, the MIC50 [1] was 100 µg/mL (≈ 83.7 µM) and the MIC50 [2] was 1.56 µg/mL (≈ 1.31 µM).
Work on `CC[C@H](C)[C@H]1NC(=O)[C@@H](NC(=O)[C@H](C)[C@H](O)C(C)C)[C@@H](C)OC(=O)[C@@H]2COC(=O)CNC(=O)/C=C/[C@](O)(CNCCCCCCNC(=O)OC(C)(C)C)[C@@H](C)Oc3ccc(cc3)[C@H](NC1=O)C(=O)N(C)[C@@H](Cc1ccccc1)C(=O)N[C@H]([C@@H](C)O)C(=O)N2` [Sal-NH(CH2)6NHBoc (9)] ({Pentanoyl(2R-Me,3R-OH,4-Me)}-T[d(aIle)][X4][NMeF][d(aThr)]S; ester 1-C; linker 3-6 via G) yielded a pIC50 (Escherichia coli RNAP) of 6.00, an MIC50 [1] of 25 µg/mL (≈ 20.2 µM) and an MIC50 [2] of 0.78 µg/mL (≈ 0.631 µM).
With `CCCCOC[C@@]1(O)/C=C/C(=O)NCC(=O)OC[C@@H]2NC(=O)[C@@H]([C@@H](C)O)NC(=O)[C@H](Cc3ccccc3)N(C)C(=O)[C@@H](NC(=O)[C@@H]([C@@H](C)CC)NC(=O)[C@@H](NC(=O)[C@H](C)[C@H](O)C(C)C)[C@@H](C)OC2=O)c2ccc(cc2)O[C@@H]1C` [Sal-OBu A (5A)] ({Pentanoyl(2R-Me,3R-OH,4-Me)}-T[d(aIle)][X2][NMeF][d(aThr)]S; ester 1-C; linker 3-6 via G) the pIC50 (Escherichia coli RNAP) was 5.22, the MIC50 [1] was 12.5 µg/mL (≈ 11.4 µM) and the MIC50 [2] was 1.56 µg/mL (≈ 1.43 µM).
